According to patent publication US20180312493A1, “Antibiotic Compounds, Pharmaceutical Formulations Thereof And Methods And Uses Therefor” (Simon Fraser University, priority 2015, published 2018):
Values after ≈ are worked out from the molar mass of the structure shown. Read-outs that look alike come from different tables or passages of the source.

How the values were obtained:
K. pneumoniae (C238) = assay: In vitro susceptibility, broth microdilution (MIC); format: cell-based; conditions: Klebsiella pneumoniae; K. pneumoniae (C238); read-out: Antimicrobial activity (MIC) K. pneumoniae
Method in brief: (§1)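 CLSI 2-fold serial broth microdilution; K. pneumoniae C238 grown in L-broth, S. aureus ATCC 29213 in Mueller Hinton broth, plates incubated 18–24 h at 37 °C. MIC taken as lowest concentration giving complete growth inhibition by OD600 versus compound-free wells, background-subtracted.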

S. aureus (ATCC29213) = assay: In vitro susceptibility, broth microdilution (MIC); format: cell-based; conditions: Staphylococcus aureus
Method in brief: as §1

MRSA Pyk = target: T1, MRSA Pyk (Staphylococcus aureus, UniProt Q6GG09); assay: MRSA pyruvate kinase (PK) activity, continuous LDH-coupled assay; format: biochemical, methicillin resistant S. aureus (MRSA252)
T1 construct: made in house; host or cells: E. coli BL-21 (DE3)
Method in brief: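 Activity monitored continuously as absorbance change at 340 nm from NADH oxidation via coupled lactate dehydrogenase, reactions started with 15 nM recombinant His-tagged PK (MRSA or human isoform) and run at 30° C for up to 5 min. Ki derived by varying inhibitor (0-400 nM) and PEP (2-20 mM) at 2 mM ADP; IC50 by four-parameter fitting.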

VRE#2 (2010A) = assay: In vitro susceptibility, broth microdilution (MIC); format: cell-based, vancomycin resistant Enterococci; conditions: read-out: Antimicrobial activity (MIC) VRE#2
Source text: (§2) Epidemic methicillin resistant S. aureus (MRSA) strain sequenced at the Sanger Centre (MRSA252, NRS71) was obtained from NARSA (Network on Antimicrobial Resistance in S. aureus). Methicillin sensitive S. aureus (ATCC 29213 and 25923), methicillin resistant S. aureus (ATCC BAA-1762), and Salmonella typhimurium (ATCC BAA-185) were obtained from ATCC, The Global Bioresource Center. Acinetobacter baumannii (ATCC 19606 and ATCC 17978), Klebsiella pneumonia (C238), vancomycin resistant Enterococci #2 (2010A) (VRE#2), MRSA (USA400, MW2) and Pseudomonas aeruginosa (PA0-1) were obtained from the laboratory of Dr B. B. Finlay at the University of British Columbia (Vancouver, Canada).
(§3) The antimicrobial activities of PK inhibitor candidates were determined using the 96-well microtiter standard 2-fold serial broth microdilution method as described by CLSI (formerly NCCLS) with the various gram-positive and gram-negative bacteria species mentioned above. Bacteria from a single colony were grown, overnight in either BHI Broth (VRE), mueller hinton broth (S. aureus 29213; MRSA USA400, A. baumannii 19606, MRSA BAA-1762) or L-broth (P. aeruginosa, S. typhimurium, K. pneumonia and A. baumannii 17978). Each compound was prepared in DMSO with 2-fold serial dilutions to give a final concentration of, 0.031 to 64 μg/ml. 10 μl of the compound solution was then added, in duplicate, to either, 190 μl of cation adjusted mueller hinton broth (CAMHB) or 190 μl CAMHB containing ˜2.5×10^5 CFU/ml of bacteria (final compound concentration 0.031 to 64 μg/ml). Culture plates were incubated for 18-24 h at 37° C., and optical density at 600 nm (OD600) was measured using a Benchmark Plus™ microplate spectrophotometer (Bio-Rad™). The absorbance control values for the series containing CAMHB and inhibitor were subtracted as background from the corresponding infected wells. Minimal inhibitory concentration (MIC) was defined as the lowest concentration of test compound leading to complete inhibition of cell growth in relation to compound-free control wells as determined by optical density. Vancomycin, methicillin and ciprofloxicin were used as reference compounds. All assays were run in triplicate or duplicate. Experiments were replicated at least twice to verify reproducibility using the above conditions.

MRSA (ATCC BAA-1762) = assay: In vitro susceptibility, broth microdilution (MIC); format: cell-based, methicillin resistant S. aureus; conditions: Staphylococcus aureus, read-out: Antimicrobial activity (MIC) MRSA ATCC BAA1762
Source text: as §2, §3

[1] = S. aureus ATCC29213, 18-24 h, 37 C, read-out: Antimicrobial activity (MIC) S. aureus ATCC29213

T1 sequence (Q6GG09 whole entry): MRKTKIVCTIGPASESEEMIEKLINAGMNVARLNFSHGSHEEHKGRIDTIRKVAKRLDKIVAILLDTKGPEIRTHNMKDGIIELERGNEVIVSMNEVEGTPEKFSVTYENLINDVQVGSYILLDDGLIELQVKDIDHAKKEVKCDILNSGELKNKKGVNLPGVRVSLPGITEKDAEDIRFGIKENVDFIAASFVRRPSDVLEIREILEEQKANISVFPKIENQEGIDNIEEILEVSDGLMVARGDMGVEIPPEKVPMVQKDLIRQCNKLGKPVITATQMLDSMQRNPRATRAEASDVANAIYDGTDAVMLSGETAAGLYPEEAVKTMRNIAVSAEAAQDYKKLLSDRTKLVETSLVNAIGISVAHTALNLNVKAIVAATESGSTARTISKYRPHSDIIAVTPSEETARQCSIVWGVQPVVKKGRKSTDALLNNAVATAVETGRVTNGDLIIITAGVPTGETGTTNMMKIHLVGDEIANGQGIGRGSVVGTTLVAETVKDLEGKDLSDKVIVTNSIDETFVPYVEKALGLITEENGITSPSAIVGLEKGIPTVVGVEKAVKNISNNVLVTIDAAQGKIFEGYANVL

Row | SMILES | MIC (K. pneumoniae (C238)) [µg/mL] | MIC (S. aureus (ATCC29213); [1]) [µg/mL] | IC50 (MRSA Pyk) [nM] | MIC (VRE#2 (2010A); VRE#2 (2010A)) [µg/mL] | MIC (MRSA (ATCC BAA-1762); MRSA ATCC BAA-1762) [µg/mL] | MIC (MRSA (ATCC BAA-1762)) [µg/mL] | MIC (VRE#2 (2010A)) [µg/mL] | MIC (S. aureus (ATCC29213); ATCC29213, read-out: Antimicrobial activity (MIC) S. aureus ATCC29213) [µg/mL]
1 | O=C(NCCCN1CCOCC1)c1c(/C=C/c2ccc(Cl)cc2)[nH]c2cc(Br)ccc12 [Compound 48, (E)-6-Bromo-2-(4-chlorostyryl)-N-(3-morpholinopropyl)-1H-indole-3-carboxamide] | > 64 | > 64 |  |  |  |  |  | 
2 | CCCC(=O)OC1CCN(CCNC(=O)c2c(/C=C/c3ccc(Cl)cc3)[nH]c3cc(Br)ccc23)CC1 [Compound 57, (E)-1-(2-(6-Bromo-2-(4-chlorostyryl)-1H-indole-3-carboxamido)ethyl)piperidin-4-yl Butyrate] |  | > 64 | 100 to 1000 | > 64 |  |  |  | 
3 | O=C1NCCn2c(cc3cc(Cl)ccc32)-c2[nH]c3cc(Br)ccc3c21 [Compound 74, 12-Bromo-2-chloro-7,8-dihydro-6H-[1,4]diazocino[1,8-a:7,6-b′]diindol-9(14H)-one] |  | 32 (≈ 77.2 µM) | < 100 | 64 (≈ 154 µM) |  |  |  | 
4 | CNC(=O)Cc1c(CCc2ccc(Cl)cc2)[nH]c2cc(Br)ccc12 [Compound 91, 2-(6-Bromo-2-(4-chlorophenethyl)-1H-indol-3-yl)-N-methylacetamide] | > 64 | > 64 |  |  |  |  |  | 
5 | Nc1c(/C=C/c2ccc(Cl)cc2)[nH]c2cc(Br)ccc12 [Compound 92, (E)-6-bromo-2-(4-chlorostyryl)-1H-indol-3-amine] |  | 64 (≈ 184 µM) | < 100 | 32 (≈ 92 µM) |  |  |  | 
6 | O=C(Nc1ccccc1)Nc1nc2cc(Br)ccc2s1 [Compound 99, 1-(5-bromobenzo[d]thiazol-2-yl)-3-phenylurea] | 8 (≈ 23 µM) | 1 (≈ 2.87 µM) |  |  |  |  |  | 
7 | O=C(Nc1ccccc1)Nc1nc2ccc(Br)cc2s1 [Compound 100, 1-(6-bromobenzo[d]thiazol-2-yl)-3-phenylurea] | > 64 | > 64 |  |  |  |  |  | 
8 | O=C(Cc1ccc(Cl)cc1)Nc1nc2ccc(Br)cc2s1 [Compound 109, N-(6-bromobenzo[d]thiazol-2-yl)-2-(4-chlorophenyl)acetamide] | > 64 | > 64 |  |  |  |  |  | 
9 | CN(C)CCn1c(-c2ccc(Cl)cc2)nc2[nH]c3cc(Br)ccc3c2c1=O [Compound 111, 7-bromo-2-(4-chlorophenyl)-3-(2-(dimethylamino)ethyl)-3H-pyrimido[4,5-b]indol-4(9H)-one] | > 64 | > 64 |  |  |  |  |  | 
10 | FC(F)(F)c1ccc2sc(/C=C/c3ccc(Cl)cc3)nc2c1 [Compound 115, (E)-2-(4-chlorostyryl)-5-(trifluoromethyl)benzo[d]thiazole] | > 64 | > 64 |  |  |  |  |  | 
11 | C[C@@H]1CN(CCNC(=O)c2c(-c3cc4cc(Cl)ccc4[nH]3)[nH]c3cc(Br)ccc23)[C@@H](C)CN1C [Compound 122, 6-Bromo-5′-chloro-N-(2-((2S,5R)-2,4,5-trimethylpiperazin-1-yl)ethyl)-1H,1′H-[2,2′-biindole]-3-carboxamide] |  | 8 (≈ 14.7 µM) | < 100 | 8 (≈ 14.7 µM) | 8 (≈ 14.7 µM) |  |  | 
12 | COCCC1CCCN1CCNC(=O)c1c(-c2cc3cc(Cl)ccc3[nH]2)[nH]c2cc(Br)ccc12 (centres unmarked) [Compound 123, 6-Bromo-5′-chloro-N-(2-(2-(2-methoxyethyl)pyrrolidin-1-yl)ethyl)-1H,1′H-[2,2′-biindole]-3-carboxamide] |  | 8 (≈ 14.7 µM) | < 100 | 8 (≈ 14.7 µM) | 8 (≈ 14.7 µM) |  |  | 
13 | COCCN1CCN(CCNC(=O)c2c(-c3cc4cc(Cl)ccc4[nH]3)[nH]c3cc(Br)ccc23)CC1 [Compound 129, 6-bromo-5′-chloro-N-(2-(4-(2-methoxyethyl)piperazin-1-yl)ethyl)-1H,1′H-2,2′-biindole-3-carboxamide] |  | 16 (≈ 28.6 µM) | < 100 | 16 (≈ 28.6 µM) | 16 (≈ 28.6 µM) |  |  | 
14 | CN1CCN(CCNC(=O)c2c(-c3cc4cc(Cl)ccc4[nH]3)[nH]c3cc(Br)ccc23)C(c2ccccc2)C1 (centres unmarked) [Compound 139, 6-Bromo-5′-chloro-N-(2-(4-methyl-2-phenylpiperazin-1-yl)ethyl)-1H,1′H-[2,2′-biindole]-3-carboxamide] |  | 4 (≈ 6.77 µM) | < 100 | 8 (≈ 13.5 µM) | 8 (≈ 13.5 µM) |  |  | 
15 | COc1cc2[nH]c(-c3cc4ccc(Br)cc4[nH]3)cc2cc1Cl [Compound 140, 6′-Bromo-5-chloro-6-methoxy-1H,1′H-2,2′-biindole] | > 64 | > 64 |  |  |  |  |  | 
16 | O=C(Nc1ccc(Cl)cc1)Nc1nc2cc(Br)ccc2s1 [Compound 141, 1-(5-bromobenzo[d]thiazol-2-yl)-3-(4-chlorophenyl)urea] |  | 0.5 (≈ 1.31 µM) |  |  | 0.5 (≈ 1.31 µM) |  |  | 
17 | O=C(NCCC[n+]1ccccc1)c1c(-c2cc3cc(Cl)ccc3[nH]2)[nH]c2cc(Br)ccc12 [Compound 144, 1-(3-(6-bromo-5′-chloro-1H,1′H-[2,2′-biindole]-3-carboxamido)propyl)pyridin-1-ium] |  | 8 | < 100 | 16 | 16 |  |  | 
18 | Cc1ccc2sc(NC(=O)Nc3ccc(Cl)cc3)nc2c1 [Compound 170, 1-(4-chlorophenyl)-3-(5-methylbenzo[d]thiazol-2-yl)urea] |  | 4 (≈ 12.6 µM) |  |  | 2 (≈ 6.29 µM) |  |  | 
19 | CC(=O)Nc1nc2cc(Br)ccc2s1 [Compound 175, N-(5-bromobenzo[d]thiazol-2-yl)acetamide] |  | 32 (≈ 118 µM) |  | 32 (≈ 118 µM) | 16 (≈ 59 µM) |  |  | 
20 | COC(=O)c1c(NS(=O)(=O)c2ccc(Cl)cc2)[nH]c2cc(Br)ccc12 [Compound 182, Methyl 6-bromo-2-((4-chlorophenyl)sulfonamido)-1H-indole-3-carboxylate] |  | 8 (≈ 18 µM) |  | 64 (≈ 144 µM) | 0.5 (≈ 1.13 µM) |  |  | 
21 | CN(C)CCc1c(-c2nc3ccc(Cl)cc3o2)[nH]c2cc(Br)ccc12 [Compound 203, 2-(6-Bromo-2-(6-chlorobenzo[d]oxazol-2-yl)-1H-indol-3-yl)-N,N-dimethylethan-1-amine] |  |  | < 100 |  |  | 8 (≈ 19.1 µM) | 16 (≈ 38.2 µM) | 8 (≈ 19.1 µM)
22 | CC(C)(C)OC(=O)N1CCN(C(=O)c2c(-c3cc4cc(Cl)ccc4[nH]3)[nH]c3cc(Br)ccc23)C(C(=O)O)C1 (centres unmarked) [Compound 224, 1-(6-bromo-5′-chloro-1H,1′H-[2,2′-biindole]-3-carbonyl)-4-(tert-butoxycarbonyl)piperazine-2-carboxylic Acid] |  | 32 (≈ 53.2 µM) | < 100 | 32 (≈ 53.2 µM) | 32 (≈ 53.2 µM) |  |  | 
23 | O=C(NCCN1CCN[C@H](C(=O)O)C1)c1c(-c2cc3cc(Cl)ccc3[nH]2)[nH]c2cc(Br)ccc12 [Compound 229, (S)-4-(2-(6-bromo-5′-chloro-1H,1′H-[2,2′-biindole]-3-carboxamido)ethyl)piperazine-2-carboxylic Acid] |  | > 64 | < 100 |  |  |  |  | 
